Measured values: patent US6900200B2, “Tricyclic hydroxy carboxamides and derivatives thereof tocolytic oxytocin receptor antagonists” (Wyeth, priority 2001, dated 2005)

Biological target: T1, human oxytocin receptor (Homo sapiens, UniProt P30559)
T1 construct: host or cells: CHO cells, pcDNA3.1 vector
T1 sequence (P30559 1-389): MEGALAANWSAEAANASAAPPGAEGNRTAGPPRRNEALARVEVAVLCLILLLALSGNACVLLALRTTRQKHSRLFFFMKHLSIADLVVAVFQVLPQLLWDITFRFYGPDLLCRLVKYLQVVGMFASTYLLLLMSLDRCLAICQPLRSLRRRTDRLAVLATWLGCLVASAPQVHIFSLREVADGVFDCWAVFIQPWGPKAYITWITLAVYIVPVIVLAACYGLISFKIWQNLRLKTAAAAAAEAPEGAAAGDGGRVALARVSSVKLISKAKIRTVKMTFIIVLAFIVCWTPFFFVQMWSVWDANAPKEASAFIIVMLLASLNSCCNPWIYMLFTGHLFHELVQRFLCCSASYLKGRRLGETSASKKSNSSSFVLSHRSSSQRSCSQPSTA
Assay: Oxytocin binding in CHO cell membranes expressing human oxytocin receptors ([3H]oxytocin radioligand binding)
Conditions: for inhibition at 0.1 µM: @ 100 nM, read-out: OT % inhibition @ 100 nM
Excerpt: Oxytocin Binding in Chinese Hamster Ovary Cell Membranes Expressing Human Oxytocin Receptors
Chinese Hamster Ovary (CHO) cells stably transfected with the human oxytocin receptor (cf. Tanizawa et al., U.S. Pat. No. 5,466,584 (1995) to Rohto Pharmaceutical Co. Ltd., Osaka, Japan) were obtained from M. Thibonnier, Case Western Reserve University School of Medicine, Cleveland, Ohio.
A. Passaging and Amplification of Cells
CHO cells transfected with the human oxytocin receptors obtained from M. Thibonnier (pcDNA3.1 vector) are allowed to grow to confluency (approx. >90%) in T-150 flasks under sterile conditions, in a cell culture medium of F-12 Nutrient Mixture (HAM) with L-glutamine (Gibco Cat. #11765-054) containing 15 mM HEPES (Gibco Cat. #15630-080), 1% antibiotic/antimycotic (add 5 mL 100×, Gibco Cat. #15240-062 per 500 mL F-12), 400 μg/mL of Geneticin (add 4 mL of 50 mg/mL per 500 mL F-12) and 10% Fetal Bovine Serum (Qualified, heat inactivated, Gibco Cat. #16140-063). The medium is removed by aspiration and the cells are washed with 10 mL of Hank's Balanced Salt solution (Gibco Cat. #14175-095). The salt solution is removed by aspiration and the cells trypsinized with 5 mL of trypsin-EDTA (0.05% trypsin, 0.53 mM EDTA-4Na, Gibco Cat. #25300-070) for 1 min. The trypsin is removed by aspiration and the cells dislodged by tapping. Cell Culture medium (e.g. 30 mL for 1:30 split) is immediately added and mixed well to inactivate trypsin. 1 mL of detached cells is added to new culture flasks containing fresh Cell Culture medium (e.g. into 25 mL per T-150 flask), and mixed gently. The cells are incubated at 37° C. in 5% CO2. The medium is changed at 3 to 4 days interval (or as appropriate). The cells grow to confluency (approx. >75%-95%) within 7-8 days. All steps are done under sterile conditions.
The cells are washed twice gently with Hank's Balanced Salt solution (e.g., use 10 mL per T-1 50 flask). The excess solution is removed and the cells bathed for 15-30 min. in an enzyme-free Cell Dissociation Buffer (e.g., use 8 mL Hank's Based, Gibco Cat. #13150-016 per T-150 flask) until cells are loosened. The contents are transferred to centrifuge tubes (50 mL size) kept in ice bath. All subsequent steps are done at 4° C. The tubes are centrifuged at 300×g for 15 min (1380 rpm on SORVAL, Model RT6000D, using rotor for 50 mL tubes). The supernatant is discarded and the cells suspended in homogenizing buffer (10 mM Tris-HCl containing 0.25 M sucrose and 1 mM EDTA, pH 7.4) ensuring that the volume of the buffer is about ten times the volume of the cell pellet. The cells are pooled into a centrifuge tube (50 mL) and homogenized with a Polytron at setting 6 for 10 sec. The homogenate is transferred into a Potter-Elvjehm homogenizer and homogenized with 3 strokes. The homogenate is centrifuged at 1500×g for 10 min at 4° C. (3100 rpm using SORVAL, model RT6000D, using rotor for 50 mL tubes). The pellet is discarded. The supernatant is centrifuged at 100,000×g for 60 min. at 4° C. (Beckman L8-80M ultracentrifuge; spin at 37,500 rpm with rotor type 70 Ti for 50 mL tubes; 38,000 rpm with type 80Ti for 15 mL tubes; or 35,800 rpm with rotor type 45Ti). The supernantant is discarded and the pellet suspended in 3 to 4 mL of Tris buffer (50 mM TRIS—HCl, pH 7.4). The protein content is estimated by the Bradford or Lowry method. The volume of the membrane suspension is adjusted with the membrane buffer (50 mM Tris-HCl containing 0.1% BSA and 0.1 mM PMSF) to give 3.0 mg/mL (or as appropriate) of protein. The membranes are aliquoted and stored at −70° C.
C. Radioligand Binding Assay
In wells of a 96-well format microtiter plate, is added 90, 110 or 130 μL (to make up a final volume of 200 μL) of assay buffer containing 50 mM of Tris-HCl (pH 7.4), […], 1 mg % aprotinin, 1 mg % leupeptin, 2 mg % 1,10-phenanthroline, 10 mg % trypsin inhibitor, and 0.1 mM PMSF. […]

| inhibition at 0.1 µM | Molecule | IC50 (value printed in parentheses, read-out: OT (IC50)) |
| --- | --- | --- |
| 75% | COc1ccccc1-c1ccc(C(=O)N2Cc3ccc(C(=O)N4CCN(CCO)CC4)n3Cc3ccccc32)cc1OC [Example 43, {10-[(2,2′-Dimethoxy[1,1′-biphenyl]-4-yl)carbonyl]-10,11-dihydro-5H-pyrrolo[2,1-c][1,4]benzodiazepin-3-yl}[4-(2-hydroxyethyl)-1-piperazinyl]methanone] |  |
| 83% | COc1cccc(-c2ccc(C(=O)N3Cc4ccc(C(=O)N5CCN(CCO)CC5)n4Cc4ccccc43)cc2C)c1 [Example 44, [4-(2-Hydroxyethyl)-1-piperazinyl]{10-[(3′-methoxy-2-methyl[1,1′-biphenyl]-4yl)carbonyl]-10,11-dihydro-5H-pyrrolo[2,1-c][1,4]benzodiazepin-3-yl}methanone] |  |
| 87% | Cc1ccccc1-c1ccc(C(=O)N2Cc3ccc(C(=O)N4CCN(CCO)CC4)n3Cc3ccccc32)cc1 [Example 45, [4-(2-Hydroxyethyl)-1-piperazinyl]{10-[(2′-methyl[1,1′-biphenyl]-4-yl)carbonyl]-10,11-dihydro-5H-pyrrolo[2,1-c][1,4]benzodiazepin-3-yl}methanone] |  |
| 97% | Cc1ccccc1-c1ccc(C(=O)N2Cc3ccc(C(=O)N4CCN(CCO)CC4)n3Cc3ccccc32)cc1C [Example 46, {10-[(2,2′-Dimethyl[1,1′-biphenyl]-4-yl)carbonyl]-10,11-dihydro-5H-pyrrolo[2,1-c][1,4]benzodiazepin-3-yl}[4-(2-hydroxyethyl)-1-piperazinyl]methanone] |  |
| 55% | COc1ccccc1-c1ccc(C(=O)N2Cc3ccc(C(=O)N4CCN(CCO)CC4)n3Cc3ccccc32)cc1 [Example 47, [4-(2-Hydroxyethyl)-1-piperazinyl]{10-[(2′-methoxy[1,1′-biphenyl]-4-yl)carbonyl]-10,11-dihydro-5H-pyrrolo[2,1-c][1,4]benzodiazepin-3-yl}methanone] |  |
| 79% | Cc1cc(C(=O)N2Cc3ccc(C(=O)N4CCN(CCO)CC4)n3Cc3ccccc32)ccc1-c1ccccc1C(F)(F)F [Example 48, [4-(2-Hydroxyethyl)-1-piperazinyl](10-{[2-methyl-2′-(trifluoromethyl)[1,1′-biphenyl]-4-yl)carbonyl}-10,11-dihydro-5H-pyrrolo[2,1-c][1,4]benzodiazepin-3-yl)methanone] |  |
| 81% | COc1cccc(-c2cc(OC)c(C(=O)N3Cc4ccc(C(=O)N5CCN(CCO)CC5)n4Cc4ccccc43)cc2Cl)c1 [Example 49, {10-[(6-Chloro-3,3′-dimethoxy[1,1′-biphenyl]-4-yl)carbonyl]-10,11-dihydro-5H-pyrrolo[2,1-c][1,4]benzodiazepin-3-yl}[4-(2-hydroxyethyl)-1-piperazinyl]methanone] |  |
| 83% | COc1cccc(-c2ccc(C(=O)N3Cc4ccc(C(=O)N5CCN(CCO)CC5)n4Cc4ccccc43)cc2OC)c1 [Example 50, {10-[(2,3′-Dimethoxy[1,1′-biphenyl]-4-yl)carbonyl]-10,11-dihydro-5H-pyrrolo[2,1-c][1,4]benzodiazepin-3-yl}[4-(2-hydroxyethyl)-1-piperazinyl]methanone] |  |
| 36% | COc1cc(C(=O)N2Cc3ccc(C(=O)N4CCN(CCO)CC4)n3Cc3ccccc32)ccc1-n1c(C)ccc1C [Example 52, {10-[4-(2,5-Dimethyl-1H-pyrrol-1-yl)-3-methoxybenzoyl]-10,11-dihydro-5H-pyrrolo[2,1-c][1,4]benzodiazepin-3-yl}[4-(2-hydroxyethyl)-1-piperazinyl]methanone] |  |
|  | {(2S)-1-[(10-{[2-Methoxy-2(trifluoromethyl)[1,1′-biphenyl]-4-yl]carbonyl}-10,11-dihydro-5H-pyrrolo[2,1-c][1,4]benzodiazepin-3-yl)carbonyl]pyrrolidin-2-yl}-methanol [Example 36] | 7.95 nM |
